These results are taken from a melting point compilation (Tetko et al.; mined from patent text by program, amines drawn as free bases though some values may be those of a salt).

What is called melting point is the temperature of the solid-liquid transition. As to `CC(C)C[C@H](NC(=O)c1cccc2c1Nc1ccccc1S2)C(=O)N[C@H]1CCOC1O` (some centres undefined), the melting point fell in the range of 99 to 101 °C. The value for `CC(=O)NCc1cc([N+](=O)[O-])ccc1N` was 208 to 210 °C. The value for `CC(=O)NCCC(=O)NCCO` was 122 to 125 °C; that for `Cc1nc2ccc(-c3ccc(OCC4(NC(=O)OCc5ccccc5)COC4)cc3)nn2c1-c1cnc(N)c(C(F)(F)F)c1` was 209 to 212 °C; that for `CCCOc1ccc(S(=O)(=O)N2CCN(CCC)CC2)cc1-c1nc2cc3ncn(Cc4ccccc4)c3cc2c(=O)[nH]1` was 194 to 195 °C. As for `O=CN(O)C(CCCO)CS(=O)(=O)c1ccccc1Oc1ccc(Cl)cc1` (centres undefined), the melting point lay within 127 to 129 °C.

`COc1ccc2c(c1)C(CCNC(=O)C(F)(F)F)C1(CC2)Cc2ccccc2C1` (centres undefined) returned a melting point of 149 to 152 °C.

The molecule `O=c1ccc(S(=O)(=O)c2[nH]c3ccccc3c2Cl)n[nH]1` came in with a melting point of 250 °C.

`CCCCOc1ccc(C(=O)NC[C@@H](C(=O)NO)N2CCN(S(C)(=O)=O)CC2)cc1` showed a melting point of 130 °C. In turn, `O=C1NCCc2ccc(OCCCCCl)cc2N1` returned a melting point of 177 to 179 °C. As to `N#CC1OC(=O)c2cccc(F)c21` (centres undefined), the melting point lay within 93 to 96 °C. For the molecule `CNC(=O)Cn1nnnc1S`, the melting point fell in the range of 167 to 168 °C. With `CNC(=S)NS(=O)(=O)c1cc2c(cc1OC)OC(C)(C)C(NC(=O)c1cc(Cl)ccc1OC)C2` (centres undefined) the figure was 234 to 235 °C. On to `COc1ccc(CNc2c(C)c(C)c3c(c2C)C(c2ccc(C(C)C)cc2)C(C)(C)O3)cc1` (centres undefined), for which the melting point is 95 to 96 °C. As to `CCCc1c(COc2ccc(Cc3nnn(Cc4nnn[nH]4)n3)cc2)ccc(C(C)=O)c1O`, the melting point is 137 to 139 °C. With `NS(=O)(=O)c1ccc(-n2nc(CCCNC(=O)NC3CCCCCC3)cc2-c2ccccc2)cc1` the figure was 164 to 170 °C; with `CS(=O)(=O)c1cc(C(=O)O)ccc1Oc1ccc(C(O)CSc2ccccn2)cc1` (centres undefined), 169 to 174 °C; with `O=C1N(C(c2ccccc2)c2ccccc2)c2ccccc2C1(O)c1cc2c(cc1O)OCCC2` (centres undefined), 204 to 206 °C. In turn, `COc1c(Cl)cc2nc3c(=O)[nH][nH]c(=O)c3c(O)c2c1Cl` yielded a melting point of 210 to 211 °C. In turn, `CCCc1c(-c2ccccc2)nc2n1CCc1ccccc1C2OC1CCN(C)CC1` (centres undefined) returned a melting point of 144 °C. The value for `Cc1nc2c(OCc3ccccc3)cc(C(=O)N(C)C)cc2n1C` was 159 to 160 °C; that for `Cn1cc(-c2ccccc2)c(=O)c(-c2cccc(-c3ccccc3)c2)c1` was 186 to 190 °C; that for `COc1ccc(CN(C)CCCc2ccc(NC(=O)c3cccc4c(=O)c5cccc(F)c5[nH]c34)c(C)c2)cc1OC` was 132 °C.

Consider `CC(=O)SCC(Cc1ccccc1)C(=O)Nc1cccc(C(=O)OCCBr)c1` (centres undefined), for which the melting point lay within 85 to 88 °C. The molecule `COC(=O)c1ccc(COCn2cc(Cl)cnc2=O)cc1` had a melting point of 172 °C. With `CCCCNS(=O)(=O)CCCCn1c(COCC)nc2c(N)nc3ccccc3c21` the figure was 148 to 149 °C; with `N=C(N)c1ccc(C(=O)NCCCCC(=O)NC(CC(=O)O)C(=O)NC(Cc2ccccc2)C(=O)O)cc1` (centres undefined), 169 to 171 °C; with `CC(C)(C)OC(=O)COc1cc(NC(=O)OC(C)(C)C)c(N)cc1-c1ccc(F)cc1`, 30 to 33 °C. With `N#Cc1ccc2c(c1)CC[C@@H](c1ccc(F)cc1)[C@H]2Cn1cncn1` (relative stereo), the melting point stood at 149 °C.

In turn, `CCOC(=O)C(=NO)c1ccccc1[N+](=O)[O-]` gave a melting point of 167 to 168 °C. With `C[C@H](CN1CC(F)C1)NC(=O)c1c[nH]c2ncc(-c3nn(C)c4cc(Cl)ccc34)nc12` the figure was 182 to 185 °C; with `CN(C)c1c(Cl)nc(-c2ccccc2)nc1Cl`, 49 to 50 °C.

In the case of `COC(=O)C=C1NCC(C)OC1=O` (centres undefined), the melting point is 98 to 101 °C. The value for `N[C@@H](C/C(=C\C1CCCC1)C(=O)O)C(=O)O` was 173 to 175 °C; that for `O=c1oc2cccnc2n1CN1CCN(c2cccc(C(F)(F)F)c2)CC1` was 112 to 118 °C; that for `O=C(O)CP(=O)(O)CCCc1ccccc1` was 118 to 119 °C. In the case of `Cc1cncc2cc(S(N)(=O)=O)oc12`, the melting point is 180 to 182 °C. On to `CC1Cc2c(N3C(=O)C4=C(CCCC4)C3=O)ccc(Cl)c2O1` (centres undefined), for which the melting point fell in the range of 134 to 137 °C. With `COc1cc(OC)cc(N2CCN(C(=S)Nc3cc(C)c(C)cc3OC)CC2)c1` the figure was 128 to 129 °C; with `COC(=O)c1cnn2c(C(F)(F)F)cc(Cl)nc12`, 126 to 127 °C; with `CC1(C)Oc2ccc(Cl)cc2C(NS(C)(=O)=O)C1O` (centres undefined), 198 to 202 °C. The value for `CCC(CC)Oc1cc(C)nc(Nc2c(C)cc(C)cc2C)c1N` was 73 to 75 °C; that for `O=C(c1ccc(-c2cc(-c3c[nH]nc3-c3ccccn3)ccn2)cc1)N1CCOCC1` was 155 °C; that for `O=C1C(c2ccccc2)=C(c2cccc(Cl)c2)C(=O)N1c1ccc(Cl)cc1` was 51 °C. With `CC1(CC(=O)O)CCc2ccccc2C1=O` (centres undefined) the figure was 114 to 116 °C; with `CC(=O)Nc1nc2c(ncn2COCC(COC(C)=O)OC(C)=O)c(=O)[nH]1` (centres undefined), 162 to 165 °C. For the molecule `O=C(O)c1ccc(CCNC(=O)C2Cc3ccccc3N2S(=O)(=O)c2ccc(-c3cccc(C(F)(F)F)c3)cc2)cc1` (centres undefined), the melting point turned out to be 106 °C. For `CCOC(=O)c1cc2c(C)cccc2n1CCC(=O)OC(C)(C)C`, the melting point lay within 78 to 79 °C.

In turn, `CCOc1cc(Cc2cnc(N)nc2N)cc2c1OC(C)(C)C=C2c1ccncc1` had a melting point of 223 to 226 °C.

`COC(=O)CN(C)S(=O)(=O)c1ccc(Cl)cc1` showed a melting point of 80 to 80.5 °C.

`NC12CC3CC(C1)CC(O)(C3)C2` displayed a melting point of 260 to 264 °C. In turn, `O=C(O)Cn1c(=S)sc2ccccc21` registered a melting point of 187 to 189 °C. The value for `Cn1nc(-c2cccnc2)nc1-c1cccnc1` was 148 to 149 °C; that for `Cc1cc(O)ccc1N1CCc2c1c1cccc(C)c1[nH]c2=O` was 244 to 246 °C. The value for `O=C1Nc2ccccc2C12COc1cc3c(cc12)N(Cc1ccccn1)CC=N3` (centres undefined) was 232 to 233 °C; that for `CCOC(=O)c1cc2cc(Cl)c(Cl)cc2[nH]1` was 215 to 218 °C; that for `Oc1ccc(-c2nn(-c3cc(Cl)ccc3Cl)c3cc(O)ccc23)c(O)c1` was 78 to 80 °C.

As for `O=C(O)COc1cccc2c1CCC(Cc1c[nH]c(C(c3ccccc3)c3ccccc3)n1)C2` (centres undefined), the melting point was 170 °C. For the molecule `O=CN1CC2Oc3ccccc3OC2C1` (centres undefined), the melting point lay within 207 to 208 °C. In turn, `COc1cc(C(=O)OC(C)(C)C)ccc1Cn1cc(CC(C)C(=O)O)c2ccc(C(=O)NCC3CCCC3)cc21` (centres undefined) had a melting point of 195 to 197 °C. `O=Cc1c(Cl)cc(OCCO)cc1Cl`: the melting point is 83 to 85 °C. With `N#Cc1ccc(CCc2ccc(CN3C(=O)c4ccccc4C3=O)cc2)cc1` the figure was 194 to 197 °C. Molecule `CCCc1c(OCc2cccn3c(=O)c(CC(=O)O)cnc23)ccc(C(C)=O)c1O` gave a melting point of 239 to 243 °C. With `CCNC(=O)Nc1ccc(-c2sc3c(c2CN(C)CCOC)c(=O)n(-c2ccc(N)cc2)c(=O)n3Cc2c(F)cccc2F)cc1` the figure was 205 to 207 °C; with `O=C=Nc1ccc(OC(=O)CCC(=O)Oc2ccc(N=C=O)cc2)cc1`, 193 to 195 °C; with `c1ccc2c(c1)c(-c1cc3nccnc3[nH]1)cn2CCCN1CCOCC1`, 180 to 185 °C. With `CCOCc1nc2c(N)nc3cc(-c4ccc(F)c(F)c4)cnc3c2n1CC(C)(C)O` the figure was 193 to 195 °C. With `O=C(N[C@H](Cc1ccccc1)C(=O)O)OCc1ccc2oc(Cc3ccccc3)cc2c1` the figure was 201 to 204 °C; with `O=Cc1[nH]ccc1-c1ccc(I)cc1`, 153 to 154 °C.

`CC(=Cc1ccc(Oc2ccc(C)nc2)cc1)C(=O)O` showed a melting point of 211 to 214 °C. `Cc1cc(S(N)(=O)=O)sc1S(=O)(=O)CCO` gave a melting point of 144 to 148 °C. For the molecule `C=CC1CCC2c3ccc(OCC)c(F)c3OC2C1` (centres undefined), the melting point worked out at 141 °C. With `CN(Cc1ccccc1)c1nc(N2CCOCC2)nc(-n2c(C(F)F)nc3ccccc32)n1` the figure was 147 to 150 °C; with `COc1ccccc1OCCCCCOc1ccc(C(=N)N)cc1`, 96 to 98 °C; with `CCOC(=O)c1csc(/C=C/c2cccc([N+](=O)[O-])c2)n1`, 151 to 153 °C.

For the molecule `COc1cc2c(C)c(C#N)cnc2cc1OCc1cccnc1`, the melting point lay in the range of 206 to 210 °C. On to `CCCCCCCC(=O)c1ccc(CCC(C)(COC(C)=O)NC(C)=O)cc1` (centres undefined), for which the melting point lay within 88 to 89 °C. The value for `CC(O)Cn1cnc2c(N)nc3ccccc3c21` (centres undefined) was 216 to 221 °C. On to `Clc1ccc(-c2c(Cc3nc4ccccc4o3)cnn2-c2ccccc2)cc1`, for which the melting point lay within 137 to 139 °C. The value for `CCOC(=O)/C(=C\Nc1cccc(OC)c1)c1ccccc1` was 49 to 50 °C; that for `CO[C@]1(c2cccc(OCc3ccc4c(ccc(=O)n4C)c3)c2)CCOC[C@H]1O` (racemic) was 62 to 66 °C. In the case of `CCCc1cc(C(=O)O)cc(CCC)c1OCCCCCCc1cccc(OC)c1OC`, the melting point was in the range of 61 to 65 °C.

Regarding `COC1=NC(=O)N(C)S(=O)(=O)N1`, the melting point was in the range of 195 to 199 °C. `CCOC(=O)c1cnc(Cc2ccccc2)c(C)c1Cl` registered a melting point of 233 to 245 °C. On to `FC(F)(F)c1cccc(-c2ccnc3c(Br)cnn23)c1`, for which the melting point lay within 138 to 140 °C.

In the case of `CCc1nn(-c2ccc3cc(-c4ccc([N+](=O)[O-])cc4)c(=O)oc3c2)nc1C`, the melting point was in the range of 278 to 279 °C. The value for `C=C1c2ccccc2CC(=O)c2ccccc21` was 84 to 86 °C; that for `Cc1ncn(-c2nc(Cl)c(-c3ccccc3)c3ccccc23)c1C` was 164 to 165 °C. `CC(=O)OC1C=CC2(C)C(=CCC3C2CCC2(C)C(C(C)CCCC(C)C)CCC32)C1` (centres undefined): the melting point was 73 to 75 °C.
